Values after ≈ are worked out from the molar mass of the structure shown. Read-outs that look alike come from different tables or passages of the source.
Experiments:
E. coli CTX-M-15 = test: MIC, panel of quinolone-resistant strains (CLSI); assay type: cell-based; details: Escherichia coli, CTXM15; CIP R, ESBL
E. coli 2906 = test: MIC, panel of quinolone-resistant strains (CLSI); assay type: cell-based; details: Escherichia coli, CIP R
Klebsiella ssp KPC-3 = test: MIC, panel of quinolone-resistant strains (CLSI); assay type: cell-based, Klebsiella spp; details: KPC3, CIP R, ESBL
Pseudomonas ssp PER-1 = test: MIC, panel of quinolone-resistant strains (CLSI); assay type: cell-based, Pseudomonas spp; details: PER1, CIP R, ESBL
P. aeruginosa 1388-3-02 = test: MIC, panel of quinolone-resistant strains (CLSI); assay type: cell-based; details: Pseudomonas aeruginosa, 1388302; CIP R, POL R
P. aeruginosa 143-3-03 = test: MIC, panel of quinolone-resistant strains (CLSI); assay type: cell-based; details: Pseudomonas aeruginosa, 143303; CIP I, POL R
[1] = test system: Acinetobacter spp. H064200250; test: MIC determination for Acinetobacter strains (Example 3); assay type: cell-based, Acinetobacter sp.; details: LEV R, CIP R, MRP R, IMP I
A. baumannii A 401 = test: as above; assay type: cell-based; details: A401, LEV R, CIP R, AMK R, TET R
A. baumannii J2 [2] = test: MIC without and with sub-inhibitory polymyxin B (Example 4); assay type: cell-based, Acinetobacter baumannii; details: Acinetobacter baumannii, J2, A. baumannii J2, without polymyxin B, read-out: MIC without PB
[3] = test system: Acinetobacter sp. (H064200250); test: as above; assay type: cell-based; details: Acinetobacter, without polymyxin B
A. baumannii A329 [4] = test: as above; assay type: cell-based, Acinetobacter baumannii; details: Acinetobacter baumannii
A. baumannii A401 [5] = test: as above; assay type: cell-based, Acinetobacter baumannii; details: for MIC: Acinetobacter baumannii, A401, A baumannii A 401, without polymyxin B, read-out: MIC without PB
A. baumannii A472 [6] = test: as above; assay type: cell-based, Acinetobacter baumannii; details: for MIC ratio without/with polymyxin B: A. baumannii A472, ratio MIC without PB to MIC + PB, PB […]; for MIC: Acinetobacter baumannii, A472, A. baumannii A472, without polymyxin B, read-out: MIC without PB
A. baumannii A473 [7] = test: as above; assay type: cell-based, Acinetobacter baumannii; details: Acinetobacter baumannii, A473, A. baumannii A473, without polymyxin B, read-out: MIC without PB
A. baumannii A489 = test: as above; assay type: cell-based, Acinetobacter baumannii; details: Acinetobacter baumannii, A489, A. baumannii A489, without polymyxin B, read-out: MIC without PB
A. baumannii J2 [8] = test: Preliminary MBC without and with sub-inhibitory polymyxin B (Example 4); assay type: cell-based, Acinetobacter baumannii; details: Acinetobacter baumannii, J2, A. baumannii J2, without polymyxin B, preliminary MBC, read-out: MBC without PB
[9] = test system: Acinetobacter sp. (H064200250); test: as above; assay type: cell-based; details: Acinetobacter, without polymyxin B, preliminary MBC, read-out: MBC without PB
Procedure, shortened: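 Incubation 18-20 h, 37° C. MBC = lowest conc. with ~90% fewer colonies than positive control (single/no colonies).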

A. baumannii A329 [10] = test: as above; assay type: cell-based, Acinetobacter baumannii; details: Acinetobacter baumannii, A329, A. baumannii A329, without polymyxin B, read-out: MBC without PB
A. baumannii A401 [11] = test: as above; assay type: cell-based, Acinetobacter baumannii; details: Acinetobacter baumannii, A401, A baumannii A 401, without polymyxin B, preliminary MBC, read-out: MBC without PB
A. baumannii A473 [12] = test: as above; assay type: cell-based, Acinetobacter baumannii; details: Acinetobacter baumannii, A473, A. baumannii A473, without polymyxin B, read-out: MBC without PB
[13] = test system: resistant strains of A. baumannii and one strain of Acinetobacter sp.; test: MIC without and with sub-inhibitory polymyxin B, whole panel / MIC ranges (Example 4; also strains not listed separately); assay type: cell-based; details: Acinetobacter baumannii
A. baumannii A390 = test: Preliminary MBC without and with sub-inhibitory polymyxin B (Example 4); assay type: cell-based, Acinetobacter baumannii; details: Acinetobacter baumannii, A390, A. baumannii A390, without polymyxin B, preliminary MBC, read-out: MBC without PB
A. baumannii A472 [14] = test: as above; assay type: cell-based, Acinetobacter baumannii; details: Acinetobacter baumannii, A472, A. baumannii A472, without polymyxin B, read-out: MBC without PB
A. baumannii ATCC 19606 = test: MIC without and with sub-inhibitory polymyxin B (Example 4); assay type: cell-based, Acinetobacter baumannii; details: Acinetobacter baumannii, ATCC19606, A. baumannii ATCC 19606; without polymyxin B; 2nd experiment; visual reading; read-out: MIC without PB
[15] = Acinetobacter spp. H064200250 (OXA51), 2nd experiment, visual reading, read-out: MIC without PB
[16] = Acinetobacter spp. H064200250, 1st experiment, read-out: MIC without PB
[17] = A329, A. baumannii A329, without polymyxin B, 1st experiment, read-out: MIC without PB
[18] = A329, A. baumannii A329, without polymyxin B, 2nd experiment, visual reading, read-out: MIC without PB
[19] = Acinetobacter spp. H064200250 (OXA51), 2nd experiment
[20] = Acinetobacter spp. H064200250, 1st experiment
[21] = read-out: MIC range without PB 01-10-2008 n = 8, without polymyxin B, 1st experiment, 8 strains
[22] = without polymyxin B, 2nd experiment, 11 strains, read-out: MIC range without PB 14-10-2008 n = 11
[23] = Acinetobacter spp. H064200250 (OXA51), 2nd experiment, MIC read with alamar blue, read-out: MIC without PB, read with alamar blue

SMILES	MIC (E. coli CTX-M-15)	MIC (E. coli 2906)	MIC (Klebsiella ssp KPC-3)	MIC (Pseudomonas ssp PER-1)	MIC (P. aeruginosa 1388-3-02)	MIC (P. aeruginosa 143-3-03)	MIC [1]	MIC (A. baumannii A 401)	MIC (A. baumannii J2 [2]; 2nd experiment, visual reading)	MIC [3, 15]	MIC [3, 16]	MIC (A. baumannii A401 [5]; 1st experiment)	MIC (A. baumannii A401 [5]; 2nd experiment, visual reading)	MIC (A. baumannii A489; 2nd experiment, visual reading)	MBC (A. baumannii J2 [8]; 2nd experiment)	MBC [9, 19]	MBC [9, 20]	MBC (A. baumannii A401 [11]; 2nd experiment)	MBC (A. baumannii A401 [11]; 1st experiment)	MBC (A. baumannii A473 [12]; 1st experiment)	also measured
Cc1c(-c2cc(Cl)c(N)c(Cl)c2)ccn2c(=O)c(C(=O)O)cc(C3CC3)c12 [Compound 3, 8-(3,5-dichloro-4-amino-phenyl)-1-cyclopropyl-9-methyl-4-oxo-quinolizine-3-carboxylic acid]	> 32 µg/mL	> 32 µg/mL	8 µg/mL (≈ 19.8 µM)	32 µg/mL (≈ 79.4 µM)	8 µg/mL (≈ 19.8 µM)	4 µg/mL (≈ 9.92 µM)	8 µg/mL (≈ 19.8 µM)	8 µg/mL (≈ 19.8 µM)	32 µg/mL (≈ 79.4 µM)	16 µg/mL (≈ 39.7 µM)	8 µg/mL (≈ 19.8 µM)	8 µg/mL (≈ 19.8 µM)	16 µg/mL (≈ 39.7 µM)	4 µg/mL (≈ 9.92 µM)	32 µg/mL (≈ 79.4 µM)	16 µg/mL (≈ 39.7 µM)	8 µg/mL (≈ 19.8 µM)	16 µg/mL (≈ 39.7 µM)	4 µg/mL (≈ 9.92 µM)	4 µg/mL (≈ 9.92 µM)	MIC (A. baumannii J2 [2]; 1st experiment): 8 µg/mL (≈ 19.8 µM); MIC (A. baumannii A329 [4]; [17]): 16 µg/mL (≈ 39.7 µM); MIC (A. baumannii A329 [4]; [18]): 16 µg/mL (≈ 39.7 µM); MIC (A. baumannii A329 [4]; A329, read-out: MIC +0.06 μg/ml PB, read with alamar blue, A. baumannii A329, +0.06 μg/ml polymyxin B, 2nd experiment, MIC read with alamar blue): 1 µg/mL; MIC ratio without/with polymyxin B (A. baumannii A401 [5]; A baumannii A 401, ratio MIC without PB to MIC + PB, PB 0.06 μg/ml, 2nd experiment): 128 µg/mL; MIC ratio without/with polymyxin B (A. baumannii A472 [6]; 2nd experiment): ≥ 1020 µg/mL; MIC (A. baumannii A472 [6]; 1st experiment): 32 µg/mL (≈ 79.4 µM); MIC (A. baumannii A473 [7]; 1st experiment): 4 µg/mL (≈ 9.92 µM); MIC (A. baumannii A473 [7]; 2nd experiment, visual reading): 8 µg/mL (≈ 19.8 µM); MIC (A. baumannii A489; 1st experiment): 4 µg/mL (≈ 9.92 µM); MBC (A. baumannii J2 [8]; 1st experiment): 8 µg/mL (≈ 19.8 µM); MBC (A. baumannii A329 [10]; 1st experiment): 16 µg/mL (≈ 39.7 µM); MBC (A. baumannii A329 [10]; 2nd experiment): 32 µg/mL (≈ 79.4 µM); MBC (A. baumannii A473 [12]; 2nd experiment): 8 µg/mL (≈ 19.8 µM)
Cc1c(-c2ccc(CN)c(F)c2)ccn2c(=O)c(C(=O)O)cc(C3CC3)c12 [Compound 4, 8-(3-fluoro-4-aminomethyl-phenyl)-1-cyclopropyl-9-methyl-4-oxo-quinolizine-3-carboxylic acid]	16 µg/mL (≈ 43.7 µM)	8 µg/mL (≈ 21.8 µM)	4 µg/mL (≈ 10.9 µM)	8 µg/mL (≈ 21.8 µM)	16 µg/mL (≈ 43.7 µM)	4 µg/mL (≈ 10.9 µM)	16 µg/mL (≈ 43.7 µM)	16 µg/mL (≈ 43.7 µM)		32 µg/mL (≈ 87.3 µM)	16 µg/mL (≈ 43.7 µM)	16 µg/mL (≈ 43.7 µM)	16 µg/mL (≈ 43.7 µM)	16 µg/mL (≈ 43.7 µM)	16 µg/mL (≈ 43.7 µM)	32 µg/mL (≈ 87.3 µM)	16 µg/mL (≈ 43.7 µM)	32 µg/mL (≈ 87.3 µM)	4 µg/mL (≈ 10.9 µM)	4 µg/mL (≈ 10.9 µM)	MIC [13, 21]: 2 to 32 µg/mL (≈ 5.46 to 87.3 µM); MIC [13, 22]: 4 to 16 µg/mL (≈ 10.9 to 43.7 µM); MIC [3, 23]: 16 µg/mL (≈ 43.7 µM); MIC (A. baumannii A329 [4]; [17]): 16 µg/mL (≈ 43.7 µM); MIC (A. baumannii A329 [4]; [18]): 16 µg/mL (≈ 43.7 µM); MIC (A. baumannii A472 [6]; 2nd experiment, visual reading): 16 µg/mL (≈ 43.7 µM); MBC (A. baumannii J2 [8]; 1st experiment): 4 µg/mL (≈ 10.9 µM); MBC (A. baumannii A329 [10]; 1st experiment): 16 µg/mL (≈ 43.7 µM); MBC (A. baumannii A329 [10]; 2nd experiment): 32 µg/mL (≈ 87.3 µM); MBC (A. baumannii A390; 2nd experiment): 32 µg/mL (≈ 87.3 µM); MBC (A. baumannii A472 [14]; 2nd experiment): 16 µg/mL (≈ 43.7 µM)
Cc1c(-c2ccc(N)cc2)c(F)cn2c(=O)c(C(=O)O)cc(C3CC3)c12 [Compound 7, 8-(4-amino-phenyl)-1-cyclopropyl-7-fluoro-9-methyl-4-oxo-quinolizine-3-carboxylic acid]	32 µg/mL (≈ 90.8 µM)	32 µg/mL (≈ 90.8 µM)	16 µg/mL (≈ 45.4 µM)	16 µg/mL (≈ 45.4 µM)	16 µg/mL (≈ 45.4 µM)	4 µg/mL (≈ 11.4 µM)	8 µg/mL (≈ 22.7 µM)	4 µg/mL (≈ 11.4 µM)	4 µg/mL (≈ 11.4 µM)	16 µg/mL (≈ 45.4 µM)	8 µg/mL (≈ 22.7 µM)	4 µg/mL (≈ 11.4 µM)	8 µg/mL (≈ 22.7 µM)	8 µg/mL (≈ 22.7 µM)	4 µg/mL (≈ 11.4 µM)	8 µg/mL (≈ 22.7 µM)	4 µg/mL (≈ 11.4 µM)	8 µg/mL (≈ 22.7 µM)	4 µg/mL (≈ 11.4 µM)	4 µg/mL (≈ 11.4 µM)	MIC ([13]; A. baumannii A14, without polymyxin B, 1st experiment, read-out: MIC without PB): 32 µg/mL (≈ 90.8 µM); MIC [13, 21]: 2 to 32 µg/mL (≈ 5.68 to 90.8 µM); MIC [13, 22]: 2 to 16 µg/mL (≈ 5.68 to 45.4 µM); MIC (A. baumannii ATCC 19606): 0.25 µg/mL (≈ 0.709 µM); MIC [3, 23]: 8 µg/mL (≈ 22.7 µM); MIC ratio without/with polymyxin B (A. baumannii A472 [6]; 2nd experiment): ≥ 256 µg/mL; MIC (A. baumannii A472 [6]; 1st experiment): 4 µg/mL (≈ 11.4 µM); MIC (A. baumannii A472 [6]; 2nd experiment, visual reading): 8 µg/mL (≈ 22.7 µM); MIC (A. baumannii A473 [7]; 1st experiment): 4 µg/mL (≈ 11.4 µM); MIC (A. baumannii A473 [7]; 2nd experiment, visual reading): 4 µg/mL (≈ 11.4 µM); MIC (A. baumannii A489; 1st experiment): 8 µg/mL (≈ 22.7 µM); MBC (A. baumannii A390; 1st experiment): 4 µg/mL (≈ 11.4 µM); MBC (A. baumannii A472 [14]; 1st experiment): 4 µg/mL (≈ 11.4 µM); MBC (A. baumannii A472 [14]; 2nd experiment): 8 µg/mL (≈ 22.7 µM); MBC (A. baumannii A473 [12]; 2nd experiment): 4 µg/mL (≈ 11.4 µM)
